Data reported in patent US7875601B2, “Cancer treatment with epothilones” (Novartis AG, priority 1998, dated 2011).
Marks after values point to notes of the source that are not given here.

Assays:
[1] = tested on: human COLO 205 colon tumors; assay type: in vivo, female BALB/c nude mice; details: 75 mg/kg, day 32
Protocol: (§1) Female or male BALB/c nu/nu (nude) mice are kept under sterile conditions (10 to 12 mice per Type III cage) with free access to food and water. Mice weigh between 20 and 25 grams at the time of tumor implantation. Tumors are established by subcutaneous injection of cells (minimum 2×10^6 cells in 100 μl PBS or medium) in carrier mice (4-8 mice per cell line). The resulting tumors are serially passaged for a minimum of three consecutive transplantations prior to start of treatment. Tumor fragments (approx. 25 mg) are implanted s.c. into the left flank of animals with a 13-gauge trocar needle while the mice are exposed to Forene (Abbott, Switzerland) anesthesia.
(§2) Tumor growth and body weights are monitored once or twice weekly. All treatments are administered intravenously (i.v.) and are initiated when a mean tumor volume of approximately 100 to 250 mm^3 is attained, depending upon the tumor type. Tumor volumes are determined using the formula […] (see Cancer Chemother. Pharmacol. 24:148-154, [1989]). Treatments with epothilone B vary the dose and the frequency of administration. Comparator agents are administered according to previously determined optimal treatment regimens. In addition to presenting changes in tumor volumes over the course of treatment, antitumor activity is expressed as T/C % (mean increase of tumor volumes of treated animals divided by the mean increase of tumor volumes of control animals multiplied by 100). Tumor. regression (%) represents the smallest mean tumor volume compared to the mean tumor volume at the start of treatment, according to the formula Regression (%)=(1−Vend/Vstart)×100(Vend=final mean tumor volume, Vstart=mean tumor volume at the start of treatment. Any animals in which the tumor has reached a size exceeding approximately 1.5 to 2.5 cm^3 are sacrificed. Details can be found below.

[2] = tested on: human HCT-15 colon carcinoma; test: Antitumor effect against s.c. transplanted HCT-15 tumors; assay type: in vivo, female BALB/c nude mice
Text: Human colorectal adenocarcinoma cell line HCT-15 (ATCC CCL 225) is from the American Type Culture Collection (Rockville, Md., USA), and the cells are cultivated in vitro as recommended by the supplier. HCT-15 is an epithelial-like cell line. (Cancer Res. 39: 1020-25 [1979]) that is multi-drug resistant by virtue of over-expression of P-glycoprotein (P-gp, gp170, MDR-1;Anticancer Res. 11: 1309-12 [1991]; J. Biol. Chem. 264: 18031-40 [1989]; Int. J. Cancer 1991; 49: 696-703 [1991]) and glutathione-dependent resistance mechanisms (Int. J. Cancer 1991; 49: 688-95 [1991]).
as §1, §2
Tumor volumes are used as the primary indicator of activity of antitumor agents used alone or in combination, and changes in body weights are measured as an indicator of treatment tolerability.

[3] = tested on: KB-8511; details: KB-8511 vs KB-31; cited from earlier work
[4] = tested on: KB-8511 (Epidermoid, MDR); test: Antiproliferative assay, KB-8511; assay type: cell-based, human; details: KB-8511 vs parental line
Protocol: The human epidermal (mouth) carcinoma cell line KB-8511 (a P-gp over-expressing cell line derived from the epidermoid (mouth) KB-31 carcinoma cell line) is obtained from Dr. R. M. Baker, Roswell Park Memorial Institute (Buffalo, N.Y., USA) (for description see Akiyama et al., Somat. Cell. Mol. Genetics 11, 117-126 (1985) and Fojo A., et al., Cancer Res. 45, 3002-3007 (1985)) and is cultured as previously described (Meyer, T., et al., Int. J. Cancer 43 851-856 (1989)).
Antiproliferative assays are performed as previously described (Int. J. Cancer 43, 851-6 (1989)). Briefly, cells are seeded at 1.5×10^3 cells/well into 96-well microtiter plates and incubated overnight. Compounds are added in serial dilutions on day 1. The plates are then incubated for an additional 2 to 5 days, allowing for at least one cell doubling (cell line dependent), after which the cells are fixed with 3.3% v/v glutaraldehyde, washed with water and stained with 0.05% w/v methylene blue. After washing, the dye is eluted with 3% v/v HCl and the optical density measured at 665 nm with a SpectraMax 340 (Bucherer, Basel, Switzerland). IC50 values are determined by a computerized system (SoftPro, Bucherer, Basel, Switzerland) using the formula (OD test−OD start)/(OD control−OD start)×100. IC50 is defined as the drug concentration which leads to 50% of cells per well compared to control cultures (100%) at the end of incubation period.

[5] = 75 mg/kg, i.v., on days 14 and 21
[6] = 75 mg/kg, i.v., on days 14 and 21, mean ± SEM

For `O=c1[nH]cc(F)c(=O)[nH]1` [5-fluorouracil, reference compound], the T/C ([1]; i.v. every 7 days (days 14, 21, 28)) was 18%, the Regression ([1]; i.v. every 7 days) was “none” and the “Δ Tumor Volume (mm^3)” value ([1]; i.v. every 7 days) was 62 ± 12 mm^3. The Regression [2, 5] was “none”, the T/C [2, 5] was 88% and the “% Body Weight Change” value [2, 6] was 9 ± 4%. The “D Body Weight” value [2, 6] was 2.0 ± 0.7 g, the “D Tumor Volume (mm^3)” value [2, 6] was 1654 ± 824 mm^3 and the deaths ([2]; two 75 mg/kg administrations) was 50%.
For `COc1cc2c(c(OC)c1OC)-c1ccc(OC)c(=O)cc1[C@@H](NC(C)=O)CC2` [colchicine], the “relative resistance when compared with the KB-31 cells” value [3] is listed as ~40 fold.
With `CC(=O)O[C@H]1C(=O)[C@@]2(C)[C@H]([C@H](OC(=O)c3ccccc3)[C@]3(O)C[C@H](OC(=O)[C@H](O)[C@@H](NC(=O)c4ccccc4)c4ccccc4)C(C)=C1C3(C)C)[C@]1(OC(C)=O)CO[C@@H]1C[C@@H]2O` [paclitaxel, reference compound] the “relative resistance, IC50 (resistant line)/IC50 (parental line)” value [4] was “(343)^a”.
